From PubChem BioAssay (NCI)
“And” between values parts separate entries of the source, which are not always exact repeats. Equal entries are not always repeated.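 Compound exposure: 48 hours, 5 concentrations, 96-well plates. GI50 is the concentration that inhibits growth by half. TGI marks complete inhibition of growth.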

Assays:
Assay in all cases: NCI-60 cell line screen, 48 h
[1] = tested on: CCRF-CEM leukemia
[2] = tested on: COLO 205 colon
[3] = tested on: HCT-116 colon
[4] = tested on: HCT-15 colon
[5] = tested on: HOP-92 NSCLC
[6] = tested on: MDA-MB-231 breast
[7] = tested on: NCI-H226 lung
[8] = tested on: RPMI-8226 leukemia
[9] = tested on: RXF 393 renal
[10] = tested on: T-47D breast

Row | SMILES | TGI [1] [µM] | TGI [2] | TGI [3] | TGI [4] [µM] | TGI [5] | TGI [6] [µM] | TGI [7] [µM] | TGI [8] | TGI [9] | TGI [10] [µM] | GI50 [1] | GI50 [3] | GI50 [4] | GI50 [5] | GI50 [6] | GI50 [8] | GI50 [9] | GI50 [10] [µM] | GI50 [2] | GI50 [7]
1 | CC(=O)C1=C(O)/C(=C\c2ccco2)OC1=O | > 10 | > 10 µM | > 10 µM | > 10 | > 10 µM | > 10 | > 10 | > 10 µM | > 10 µM | > 10 |  |  |  |  |  |  |  |  |  | 
2 | O=C(Nc1ccccc1)Nc1ccccc1CNc1nc(Nc2ccc(OCCN3CCCC3)cc2)ncc1Cl | 17.8 |  | 7.12 µM | 8.31 | 10.6 µM | 5.65 |  | 3.6 µM | 5.84 µM | 20.8 | 2.02 µM | 1.75 µM | 2 µM | 2.82 µM | 1.49 µM | 1.33 µM | 1.44 µM | 2.75 |  | 
3 | CN1c2ccccc2C(=O)Nc2cnc(Cl)nc21 | > 100 | > 100 µM | > 100 µM | > 100 | > 100 µM | > 100 | > 100 | > 100 µM | > 100 µM | > 100 |  |  |  |  |  |  |  |  |  | 
4 | CCCCCCN(CCCCCC)CC(O)c1cccc2ccc(Cl)cc12 (configuration not stated) | 31.7 | 14.9 µM | 14.2 µM | 18.3 | 19.5 µM | 16.2 | 18.2 | 22.4 µM | 7.71 µM | 4.46 | 11.4 µM | 3.09 µM | 5.01 µM | 3.21 µM | 4.18 µM | 5.2 µM | 2.16 µM | 1.67 | 3.82 µM | 4.89 µM
5 | C=C(C)[C@]12CC(C)C34OC(/C=C\C=C\CCCCCCCCC)(O[C@@H]1[C@@H]3[C@@H]1O[C@]1(CO)[C@@H](O)[C@]1(O)C(=O)C(C)=C[C@@H]41)O2 (some centres not stated) | > 26.1 | 14.1 µM | 21 µM | 25.4 | 22.4 µM | 15.4 | 33.2 | 17 µM | 28.6 µM | 26.5 |  |  |  |  |  |  |  |  |  | 
6 | CC(C)(C)NCCC(O)c1cc(C(F)(F)F)nc2c(C(F)(F)F)cccc12 (configuration not stated) | 30.5 | 25.5 µM | 17.1 µM | 21 | 26.2 µM | 22.8 | 33.4 | 17.1 µM | 19.2 µM | 30.9 |  |  |  |  |  |  |  |  |  | 
7 | COc1cc(OC)cc(N2CCN(C(=O)Nc3nc4cc(F)ccc4nc3OC)CC2)c1 | > 100 | 0.0831 µM and 0.123 µM and 0.0771 µM | 1.54 µM and 0.214 µM | > 100 | 19.3 µM and 3.83 µM and 6.77 µM |  |  | 13.8 µM and 20 µM | 40.7 µM and 66.1 µM | 43.8 | 0.0899 µM and 0.0338 µM and 0.0345 µM | 0.0381 µM and 0.0332 µM and 0.0334 µM | 0.0318 µM and 0.0346 µM and 0.034 µM | < 0.01 µM and 0.0062 µM | 0.0524 µM and 0.0976 µM and 0.0361 µM | < 0.0182 µM and 0.0386 µM and 0.0416 µM | < 0.01 µM and 0.016 µM | 0.832 | 0.0267 µM and 0.0321 µM and 0.0266 µM | 0.197 µM and 0.0515 µM and 0.136 µM
8 | CCCCCCN1C(=O)CN=C1Nc1ccc2cc3ccc(NC4=NCC(=O)N4CCCCCC)cc3nc2c1 | 6.79 | 4.04 µM | 2.48 µM |  | 3.78 µM | 3.87 | 7.25 | 5.52 µM | 3.22 µM | 4.97 | 2.49 µM | 1.19 µM |  | 1.63 µM | 1.94 µM | 2.07 µM | 1.52 µM | 1.71 | 1.88 µM | 2.48 µM
9 | Cc1csc(Nc2nc(-c3cccc(Cl)c3)nc(C(Cl)(Cl)Cl)n2)n1 | > 33.3 | 5.43 µM | > 33.3 µM | > 33.3 | 3.21 µM | > 33.3 | > 33.3 | > 33.3 µM | 6.44 µM | 8.54 | 21.7 µM | 2.29 µM | 4.46 µM | 0.801 µM | 2.17 µM | 1.22 µM | 1.12 µM | 1.04 | 1.04 µM | > 33.3 µM
10 | CCOC(=O)Cc1csc(NC(=O)C(OC(=O)c2ccc(N)cc2)c2ccccc2)n1 (configuration not stated) |  | > 100 µM | > 100 µM | > 100 | > 100 µM | 97.1 | > 100 | > 100 µM | > 100 µM | > 100 |  | 30.8 µM | 43.5 µM | 62 µM | 31.6 µM | 63.9 µM | 66.4 µM | 55.2 | 46.2 µM | 60 µM
11 | CCOC(=O)C1=C(c2ccccc2)N(Cc2ccccc2)C2(O)C=CC(=O)C3C(=O)N(c4ccccc4)C(=O)C132 (configuration not stated) | 7.03 | 3.45 µM |  | 3.67 | 5.54 µM | 4.98 | 4.87 | 4.35 µM | 3.75 µM | 4.44 | 1.53 µM |  | 1.7 µM | 2.03 µM | 2.2 µM | 1.27 µM | 1.91 µM | 1.67 | 1.74 µM | 2.25 µM
12 | CC1(C)CC2(C)OC2C2(C1)N=NC(=Nc1ccccc1)O2 (configuration not stated) | 8.07 | 24.9 µM | 6.45 µM | 4.62 |  | 7.75 | 29.6 | 6.82 µM | 6.26 µM | 14.4 | 2.46 µM | 1.29 µM | 1.68 µM |  | 2.61 µM | 2.41 µM | 2.19 µM | 2.83 | 10.9 µM | 10.7 µM
13 | CC(=O)N[C@@H]1CCC[C@H](C(=O)Nc2cc(-c3cnn4c3CC(C)(C)C4)c(Cl)cn2)C1 | 0.315 |  | > 100 µM | > 100 | 0.0389 µM | > 100 | 38.7 | 0.0703 µM | < 0.01 µM | 0.719 | < 0.01 µM | < 0.01 µM | 0.0225 µM | < 0.01 µM | < 0.0133 µM | 0.0158 µM | < 0.01 µM | 0.0101 |  | < 0.01 µM
14 | COc1cc(C(=O)N/N=C/c2cccc([N+](=O)[O-])c2)cc(OC)c1OC | > 100 | 26.9 µM | > 100 µM | > 100 |  | > 100 | > 100 | > 100 µM | 34.3 µM | > 100 | 4.52 µM | 4.09 µM | 6.78 µM |  | 26.1 µM | 5.39 µM | 6.9 µM | 35.6 | 5.11 µM | 18 µM
